Test results as given in PubChem BioAssay AID1963981 (Molecular Pharmacology Branch, DTP, NCI, 2024).
pIC50: −log10 of the molar value.

System: 354836-022-R-J1-PDC multicell spheroid viability
Assay: Anticancer human tumor 354836-022-R-J1-PDC patient-derived head and neck squamous cell carcinoma cell line growth inhibition [PI3K]
Details: for pIC50: curve of first compound; for viability, T/C: stronger effect = lower value; active = viability on the fitted dose curve at most 10% of control; inactive = the rest
In short: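 Combination activity was assessed by viability in multicellular tumor spheroids carrying HUVEC and MSC components. Agents were tested with PI3K inhibitors from a Cmax-based top dose (or 10 microM) downward in half-log increments.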

[1] = second compound 0.0316 µM, first compound 0.0316 µM
[2] = second compound 0.0316 µM, first compound 0.1 µM
[3] = second compound 0.0316 µM, first compound 0.316 µM
[4] = second compound 0.0316 µM, first compound 1 µM
[5] = second compound 0.0316 µM, first compound 3.16 µM
[6] = second compound 0.0316 µM, first compound 10 µM
[7] = second compound 0.1 µM, first compound 0.0316 µM
[8] = second compound 0.1 µM, first compound 0.1 µM
[9] = second compound 0.1 µM, first compound 0.316 µM
[10] = second compound 0.1 µM, first compound 1 µM
[11] = second compound 0.1 µM, first compound 3.16 µM
[12] = second compound 0.1 µM, first compound 10 µM
[13] = second compound 0.316 µM, first compound 0.0316 µM
[14] = second compound 0.316 µM, first compound 0.1 µM
[15] = second compound 0.316 µM, first compound 0.316 µM
[16] = second compound 0.316 µM, first compound 1 µM
[17] = second compound 0.316 µM, first compound 3.16 µM
[18] = second compound 0.316 µM, first compound 10 µM
[19] = second compound 1 µM, first compound 0.0316 µM
[20] = second compound 1 µM, first compound 0.1 µM
[21] = second compound 1 µM, first compound 0.316 µM
[22] = second compound 1 µM, first compound 1 µM
[23] = second compound 1 µM, first compound 3.16 µM
[24] = second compound 1 µM, first compound 10 µM
[25] = second compound 3.16 µM, first compound 0.0316 µM
[26] = second compound 3.16 µM, first compound 0.1 µM
[27] = second compound 3.16 µM, first compound 0.316 µM
[28] = second compound 3.16 µM, first compound 1 µM
[29] = second compound 3.16 µM, first compound 3.16 µM
[30] = second compound 3.16 µM, first compound 10 µM
[31] = second compound 10 µM, first compound 0.0316 µM
[32] = second compound 10 µM, first compound 0.1 µM
[33] = second compound 10 µM, first compound 0.316 µM
[34] = second compound 10 µM, first compound 1 µM
[35] = second compound 10 µM, first compound 3.16 µM
[36] = second compound 10 µM, first compound 10 µM
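Note: spheroids exposed to agents for seven days before the viability read.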

CC1(C)CCC(CN2CCN(c3ccc(C(=O)NS(=O)(=O)c4ccc(NCC5CCOCC5)c([N+](=O)[O-])c4)c(Oc4cnc5[nH]ccc5c4)c3)CC2)=C(c2ccc(Cl)cc2)C1 + CC(Nc1ncnc2nc[nH]c12)c1cc2cccc(Cl)c2c(=O)n1-c1ccccc1
inactive: viability, T/C [1] 92.4% | viability, T/C [2] 78% | viability, T/C [3] 85.5% | viability, T/C [4] 91.7% | viability, T/C [5] 71.3% | viability, T/C [6] 110% | viability, T/C [7] 81.3% | viability, T/C [8] 89.1% | viability, T/C [9] 97.8% | viability, T/C [10] 99.5% | viability, T/C [11] 67.2% | viability, T/C [12] 93% | viability, T/C [13] 86.3% | viability, T/C [14] 105% | viability, T/C [15] 103% | viability, T/C [16] 97.7% | viability, T/C [17] 64.1% | viability, T/C [18] 93% | viability, T/C [19] 106% | viability, T/C [20] 92.8% | viability, T/C [21] 93.4% | viability, T/C [22] 80.9% | viability, T/C [23] 66.4% | viability, T/C [24] 87.2% | viability, T/C [25] 89.1% | viability, T/C [26] 106% | viability, T/C [27] 95.2% | viability, T/C [28] 85.6% | viability, T/C [29] 60.8% | viability, T/C [30] 93.5% | viability, T/C [31] 90.9% | viability, T/C [32] 87% | viability, T/C [33] 90.2% | viability, T/C [34] 82.2% | viability, T/C [35] 53% | viability, T/C [36] 76.2%
< 5.00: pIC50 (second compound 0.0316 µM) | pIC50 (second compound 0.1 µM) | pIC50 (second compound 0.316 µM) | pIC50 (second compound 1 µM) | pIC50 (second compound 3.16 µM) | pIC50 (second compound 10 µM)

C[C@@H](NC(=O)c1ncnc(N)c1Cl)c1ncc(C(=O)Nc2cc(C(F)(F)F)c(Cl)cn2)s1 + CC(Nc1ncnc2nc[nH]c12)c1cc2cccc(Cl)c2c(=O)n1-c1ccccc1
< 5.00: pIC50 (second compound 0.0316 µM) | pIC50 (second compound 0.1 µM) | pIC50 (second compound 0.316 µM) | pIC50 (second compound 1 µM) | pIC50 (second compound 3.16 µM) | pIC50 (second compound 10 µM)
inactive: viability, T/C [1] 88.8% | viability, T/C [2] 84.2% | viability, T/C [3] 102% | viability, T/C [4] 85% | viability, T/C [5] 99.7% | viability, T/C [6] 75.5% | viability, T/C [7] 90.3% | viability, T/C [8] 104% | viability, T/C [9] 108% | viability, T/C [10] 89% | viability, T/C [11] 89.6% | viability, T/C [12] 59.4% | viability, T/C [13] 103% | viability, T/C [14] 104% | viability, T/C [15] 92.5% | viability, T/C [16] 98.8% | viability, T/C [17] 87.9% | viability, T/C [18] 62.1% | viability, T/C [19] 100% | viability, T/C [20] 94.5% | viability, T/C [21] 97.4% | viability, T/C [22] 96.5% | viability, T/C [23] 102% | viability, T/C [24] 71% | viability, T/C [25] 90.6% | viability, T/C [26] 89.3% | viability, T/C [27] 105% | viability, T/C [28] 99% | viability, T/C [29] 92.8% | viability, T/C [30] 68.9% | viability, T/C [31] 82.7% | viability, T/C [32] 86% | viability, T/C [33] 84.8% | viability, T/C [34] 93.1% | viability, T/C [35] 87.7% | viability, T/C [36] 70.3%

Cn1ncnc1[C@H]1c2n[nH]c(=O)c3cc(F)cc(c23)N[C@@H]1c1ccc(F)cc1 + CC(Nc1ncnc2nc[nH]c12)c1cc2cccc(Cl)c2c(=O)n1-c1ccccc1
inactive: viability, T/C (second compound 0.0316 µM, first compound 0.000316 µM) 91.2% | viability, T/C (second compound 0.0316 µM, first compound 0.001 µM) 88.5% | viability, T/C (second compound 0.0316 µM, first compound 0.00316 µM) 85.4% | viability, T/C (second compound 0.0316 µM, first compound 0.01 µM) 108% | viability, T/C [1] 105% | viability, T/C [2] 106% | viability, T/C (second compound 0.1 µM, first compound 0.000316 µM) 102% | viability, T/C (second compound 0.1 µM, first compound 0.001 µM) 97.2% | viability, T/C (second compound 0.1 µM, first compound 0.00316 µM) 98.2% | viability, T/C (second compound 0.1 µM, first compound 0.01 µM) 86.4% | viability, T/C [7] 101% | viability, T/C [8] 83.1% | viability, T/C (second compound 0.316 µM, first compound 0.000316 µM) 100% | viability, T/C (second compound 0.316 µM, first compound 0.001 µM) 117% | viability, T/C (second compound 0.316 µM, first compound 0.00316 µM) 98.8% | viability, T/C (second compound 0.316 µM, first compound 0.01 µM) 104% | viability, T/C [13] 92.7% | viability, T/C [14] 88.6% | viability, T/C (second compound 1 µM, first compound 0.000316 µM) 110% | viability, T/C (second compound 1 µM, first compound 0.001 µM) 96.5% | viability, T/C (second compound 1 µM, first compound 0.00316 µM) 110% | viability, T/C (second compound 1 µM, first compound 0.01 µM) 96.2% | viability, T/C [19] 100% | viability, T/C [20] 79.8% | viability, T/C (second compound 3.16 µM, first compound 0.000316 µM) 108% | viability, T/C (second compound 3.16 µM, first compound 0.001 µM) 107% | viability, T/C (second compound 3.16 µM, first compound 0.00316 µM) 92.1% | viability, T/C (second compound 3.16 µM, first compound 0.01 µM) 96.7% | viability, T/C [25] 99.6% | viability, T/C [26] 73.4% | viability, T/C (second compound 10 µM, first compound 0.000316 µM) 94.7% | viability, T/C (second compound 10 µM, first compound 0.001 µM) 87.1% | viability, T/C (second compound 10 µM, first compound 0.00316 µM) 85.8% | viability, T/C (second compound 10 µM, first compound 0.01 µM) 93.3% | viability, T/C [31] 89.3% | viability, T/C [32] 65.2%
< 7.00: pIC50 (second compound 0.0316 µM) | pIC50 (second compound 0.1 µM) | pIC50 (second compound 0.316 µM) | pIC50 (second compound 1 µM) | pIC50 (second compound 3.16 µM) | pIC50 (second compound 10 µM)
